# Results published in US9686992B2, “Pesticidal mixtures including spiroheterocyclic pyrrolidine diones” (Syngenta Participations AG, priority 2012, dated 2017).
# Tests used:
# [1] = test system: Tetranychus urticae (Two-Spotted Spider Mite); experiment: Tetranychus urticae feeding/contact activity, preventive (bean leaf discs); assay type: in vivo; settings: single active ingredient, mobile stages
# Text: (§1) The action to be expected E for a given active ingredient combination obeys the so-called COLBY formula and can be calculated as follows (COLBY, S. R. “Calculating synergistic and antagonistic responses of herbicide combination”. Weeds, Vol. 15, pages 20-22; 1967):
# (§2) ppm=milligrams of active ingredient (=a.i.) per liter of spray mixture
# (§3) X=% action by active ingredient A) using p ppm of active ingredient
# (§4) Y=% action by active ingredient B) using q ppm of active ingredient.
# (§5) According to COLBY, the expected (additive) action of active ingredients A)+B) using p+q ppm of active ingredient is
# (§6) If the action actually observed (0) is greater than the expected action (E), then the action of the combination is super-additive, i.e. there is a synergistic effect. In mathematical terms the synergism factor SF corresponds to O/E. In the agricultural practice an SF of ≧1.2 indicates significant improvement over the purely complementary addition of activities (expected activity), while an SF of ≦0.9 in the practical application routine signals a loss of activity compared to the expected activity.
# Tetranychus urticae (Two-Spotted Spider Mite): Feeding/Contact Activity, Preventive
# Bean leaf discs on agar in 24-well microtiter plates were sprayed with the DMSO test solutions of certain Mixtures (as provided by Table 45). After drying, the leaf discs were infested with mite populations of mixed ages. 8 days later, discs were checked for mortality against mobile stages.
# [2] = test system: Myzus persicae (Green Peach Aphid); experiment: Myzus persicae feeding/residual contact activity, preventive (sunflower leaf discs); assay type: in vivo; settings: single active ingredient, 6 DAT
# Text: as §1, §2, §3, §4, §5, §6
# Myzus persicae (Green Peach Aphid):
# Feeding/Residual Contact Activity, Preventive
# Sunflower leaf discs were placed on agar in a 24-well microtiter plate and sprayed with the DMSO test solutions of Mixtures (as provided by Table 45). After drying, the leaf discs were infested with an aphid population of mixed ages. After an incubation period of 6 DAT (days after treatment), samples were checked for mortality.
smiles,measurement,setting,value
N#CCNC(=O)c1cnccc1C(F)(F)F [Flonicamid],AVERAGE DEAD IN % AFTER 8 DAYS,[1]; 50 ppm AI,0%
same,AVERAGE DEAD IN % AFTER 8 DAYS,[1]; 100 ppm AI,0%
same,AVERAGE DEAD IN % AFTER 8 DAYS,[1]; 200 ppm AI,0%
same,AVERAGE DEAD IN % AFTER 8 DAYS,[1]; 400 ppm AI,0%
same,AVERAGE DEAD IN % AFTER 8 DAYS,[1]; 800 ppm AI,12.5%
same,AVERAGE DEAD IN % AFTER 6 DAYS,[2]; 0.75 ppm AI,0%
same,AVERAGE DEAD IN % AFTER 6 DAYS,[2]; 1.5 ppm AI,0%
same,AVERAGE DEAD IN % AFTER 6 DAYS,[2]; 3 ppm AI,7.5%
same,AVERAGE DEAD IN % AFTER 6 DAYS,[2]; 6 ppm AI,40%
same,AVERAGE DEAD IN % AFTER 6 DAYS,[2]; 12 ppm AI,82.5%
